In patent US4156777A, “Process for producing glucopyranose-nitrosourea compounds and novel compounds included therein” (Tokyo Tanabe Company, Limited, priority 1977, dated 1979):

Legend:
leukemia L-1210 = experiment: Antitumor activity against leukemia L-1210 implanted in BDF1 mice (ILS, 60 days survivors); format: in vivo
Excerpt: Test compounds were given to BDF1 mice 24 hrs after implantation of 10^6 cells of leukemia L-1210 in each animal, through single intraperitoneal administration, intraperitoneal administration for 5 successive days, single oral administration or oral administration for 5 successive days, whereupon the increase in life span (referred to as "ILS") and number of 60 days survivors of test animals were estimated, said test of antitumor activity being that according to the method of the National Cancer Center, Tokyo [A. Hoshi et al: Farmashia, 9 (1973), 464]. In the tests, the compounds were dissolved in physiological saline solution just before administration.
^a i.p.: intraperitoneal administration p.o: oral administration
D1 : single administration D1~5 : administration for 5
^b percentage calculated from mean survival time over control
^c survivors/six animals

Acute toxicity (LD50) = format: in vivo, male Wister rats; details: rat, in vivo, after 1 week
Protocol: Test compounds were dissolved in physiological saline solution just before their dosage and administered to male Wister rats, intraperitoneally, intravenously and orally. After 1 week, the LD50 of each compound was calculated from the mortality of the test animals by the Lichfield-Wilcoxon Method.
i.v.: intravenous administration

[1] = Diabetogenic activity (blood glucose concentration after intravenous administration); format: in vivo, male Wister rats
Protocol: 40-96 mg/kg of the test compounds were administered intravenously to starved male Wister rats weighing 240-260 g each, and the blood glucose concentrations of the test animals were estimated by the glucose exidase method [L. L. Saloman et al: Anal. Chem., 31 (1959), 453], in which test the compounds were dissolved in physiological saline solution just before administration. […]

[2] = known compounds, generally seen; cited from earlier work
[3] = Effect on respiration, blood pressure, heart rate and electrocardiogram; format: in vivo, Beagle dogs; details: dog, in vivo, iv; injected into brachial veins, anesthetized Beagle dogs; read-out: maximum dosage not effected on respiration, blood pressure, heart rate and electrocardiogram
Protocol: Beagle dogs of both sexes weighing about 10 kg were anesthetized with pentobarbital sodium (30 mg/kg, i.v.), and immobilized in the supine position. Test compounds dissolved in physiological saline solution were injected into the brachial veins of the animals and the arteries at cannulated positions were treated with heparin sodium as anticoagulant.
The respiration rate of each animal was estimated with a respirometer (Nihonkohden, RP-3) through a tracheal cannula, the blood pressure with an electro-haemodynamometer (Nihonkohden, MP-4T) attached surgically to the femoral artery, and the heart rate with a pulse-rate tachometer (Nihonkohden, RT-2) through the trigger pulse of the blood pressure.

[4] = Absorption and excretion of 14C-labelled compounds; format: in vivo, rats; details: for dose excreted in expiration: within 24 hours
Protocol: The carbon atom at the 2-position of the chloroethyl group (i.e. ClCH2 CH2 -) of 6DCNU and 6MCαG was labelled with radioactive ^14 C, and the absorption and excretion of these compounds were tested using rats.

Structure (SMILES): O=NN(CCCl)C(=O)N[C@@H]1O[C@H](CO)[C@@H](O)[C@H](O)[C@H]1O [GANU, 1-(2-chloroethyl)-3-(β-D-glucopyranosyl)-1-nitrosourea]
- ILS (leukemia L-1210; 1.0 mg/kg/day, i.p. D1): 42%
- ILS (leukemia L-1210; 5.0 mg/kg/day, i.p. D1): > 280%
- Survivors (60 days) (leukemia L-1210; 5.0 mg/kg/day, i.p. D1): 2/6
- ILS (leukemia L-1210; 5.0 mg/kg/day, p.o. D1): 5%
- ILS (leukemia L-1210; 10.0 mg/kg/day, i.p. D1): > 295%
- Survivors (60 days) (leukemia L-1210; 10.0 mg/kg/day, i.p. D1): 2/6
- ILS (leukemia L-1210; 10.0 mg/kg/day, p.o. D1): 45%
- ILS (leukemia L-1210; 15.0 mg/kg/day, i.p. D1): > 507%
- Survivors (60 days) (leukemia L-1210; 15.0 mg/kg/day, i.p. D1): 5/6
- ILS (leukemia L-1210; 20.0 mg/kg/day, i.p. D1): > 518%
- Survivors (60 days) (leukemia L-1210; 20.0 mg/kg/day, i.p. D1): 5/6
- ILS (leukemia L-1210; 20.0 mg/kg/day, p.o. D1): 75%
- ILS (leukemia L-1210; 25.0 mg/kg/day, i.p. D1): > 472%
- Survivors (60 days) (leukemia L-1210; 25.0 mg/kg/day, i.p. D1): 5/6
- ILS (leukemia L-1210; 25.0 mg/kg/day, p.o. D1): 110%
- ILS (leukemia L-1210; 35.0 mg/kg/day, p.o. D1): 70%
- LD50 at 168 h (Acute toxicity (LD50); ip): 24 mg/kg
- LD50 at 168 h (Acute toxicity (LD50); iv): 10 mg/kg
- LD50 at 168 h (Acute toxicity (LD50); po): 21 mg/kg
- Blood Glucose Concentration ([1]; 40 mg/kg i.v., 0 hr after treatment): 67.8 mg/dL
- Blood Glucose Concentration ([1]; 40 mg/kg i.v., 2 hr after treatment): 70.4 mg/dL
- Blood Glucose Concentration ([1]; 40 mg/kg i.v., 4 hr after treatment): 71.3 mg/dL
- Blood Glucose Concentration ([1]; 40 mg/kg i.v., 7 hr after treatment): 94.4 mg/dL
- Blood Glucose Concentration ([1]; 40 mg/kg i.v., 10 hr after treatment): 98.2 mg/dL
- Blood Glucose Concentration ([1]; 40 mg/kg i.v., 24 hr after treatment): 120.3 mg/dL
- Blood Glucose Concentration ([1]; 40 mg/kg i.v., 48 hr after treatment): 186.5 mg/dL
- Blood Glucose Concentration ([1]; 60 mg/kg i.v., 0 hr after treatment): 67.3 mg/dL
- Blood Glucose Concentration ([1]; 60 mg/kg i.v., 2 hr after treatment): 71.2 mg/dL
- Blood Glucose Concentration ([1]; 60 mg/kg i.v., 4 hr after treatment): 72.6 mg/dL
- Blood Glucose Concentration ([1]; 60 mg/kg i.v., 7 hr after treatment): 95.4 mg/dL
- Blood Glucose Concentration ([1]; 60 mg/kg i.v., 10 hr after treatment): 105.9 mg/dL
- Blood Glucose Concentration ([1]; 60 mg/kg i.v., 24 hr after treatment): 125.5 mg/dL
- Blood Glucose Concentration ([1]; 60 mg/kg i.v., 48 hr after treatment): 189.8 mg/dL
- diabetogenic activity, decreasing order [2]: SZ>DCNU>GANU> 2MCαG≈6MCαG
- NOAEL [3]: 10 mg/kg

Structure (SMILES): O=NN(C[14CH2]Cl)C(=O)NC[C@H]1OC(O)[C@H](O)[C@@H](O)[C@@H]1O (stereo partly shown) [6DCNU-^14 C]
- dose excreted in urine ([4]; within 12 hours after the dose): 65-70%
- dose excreted in expiration [4]: 3-5%
- dose excreted in faeces ([4]; within 72 hours): 10-15%
- dose excreted in urine ([4]; within 72 hours after the dose): 75-80%

Structure (SMILES): CO[C@H]1O[C@H](CNC(=O)N(C[14CH2]Cl)N=O)[C@@H](O)[C@H](O)[C@H]1O [6MCαG-^14 C]
- dose excreted in urine ([4]; within 12 hours after the dose): 50-60%
- dose excreted in expiration [4]: 3-4%
- dose excreted in faeces ([4]; within 96 hours): 5-6%
- dose excreted in urine ([4]; within 96 hours after the dose): 80-90%
